pIC50: −log10 of the molar value.
Experiments:
Assay in all cases: kinobeads assay with mass spectrometry detection of kinases (kinase selectivity profile)
Assay type in all cases: binding
kinases (kinome) [1] = biological target: T1, kinases (kinome) (Homo sapiens, UniProt P05771); settings: PKCb (AGC), IPI00219628
T1 construct: determined in kinobeads assays with mass spectrometry detection of kinases as described previously; endogenous in cells; host or cells: cell lysate
From the text: (§1) The protein kinase complement of the human genome (the kinome) was described previously (Manning et al., 2002. Science 298(5600):1912-1934). Sequence accession numbers are defined by the International Protein Index (IPI) (Kersey et al., 2004. Proteomics 4(7):1985-1988).

kinases (kinome) [2] = biological target: T2, kinases (kinome) (Homo sapiens, UniProt P53671); settings: LIMK2 (TKL), IPI00025698
T2 construct: determined in kinobeads assays with mass spectrometry detection of kinases as described previously; endogenous in cells; host or cells: cell lysate
From the text: as §1

kinases (kinome) [3] = biological target: T3, kinases (kinome) (Homo sapiens, UniProt Q7KZI7); settings: MARK2 (CAMK), IPI00555838
T3 construct: determined in kinobeads assays with mass spectrometry detection of kinases as described previously; endogenous in cells; host or cells: cell lysate
From the text: as §1

kinases (kinome) [4] = biological target: T4, kinases (kinome) (Homo sapiens, UniProt Q9UBF8); settings: PIK4Cb (Lipid Kinase), IPI00641770
T4 construct: determined in kinobeads assays with mass spectrometry detection of kinases as described previously; endogenous in cells; host or cells: cell lysate
From the text: as §1

kinases (kinome) [5] = biological target: T5, kinases (kinome) (Homo sapiens, UniProt Q8NI60); settings: ADCK3 (Atypical), IPI00176469
T5 construct: determined in kinobeads assays with mass spectrometry detection of kinases as described previously; endogenous in cells; host or cells: cell lysate
From the text: as §1

kinases (kinome) [6] = biological target: T6, kinases (kinome) (Homo sapiens, UniProt P51451); settings: BLK (TK), IPI00554756
T6 construct: determined in kinobeads assays with mass spectrometry detection of kinases as described previously; endogenous in cells; host or cells: cell lysate
From the text: as §1

kinases (kinome) [7] = biological target: T7, kinases (kinome) (Homo sapiens, UniProt P36896); settings: ALK4 (TKL), IPI00005732
T7 construct: determined in kinobeads assays with mass spectrometry detection of kinases as described previously; endogenous in cells; host or cells: cell lysate
T7 sequence (P36896 24-505): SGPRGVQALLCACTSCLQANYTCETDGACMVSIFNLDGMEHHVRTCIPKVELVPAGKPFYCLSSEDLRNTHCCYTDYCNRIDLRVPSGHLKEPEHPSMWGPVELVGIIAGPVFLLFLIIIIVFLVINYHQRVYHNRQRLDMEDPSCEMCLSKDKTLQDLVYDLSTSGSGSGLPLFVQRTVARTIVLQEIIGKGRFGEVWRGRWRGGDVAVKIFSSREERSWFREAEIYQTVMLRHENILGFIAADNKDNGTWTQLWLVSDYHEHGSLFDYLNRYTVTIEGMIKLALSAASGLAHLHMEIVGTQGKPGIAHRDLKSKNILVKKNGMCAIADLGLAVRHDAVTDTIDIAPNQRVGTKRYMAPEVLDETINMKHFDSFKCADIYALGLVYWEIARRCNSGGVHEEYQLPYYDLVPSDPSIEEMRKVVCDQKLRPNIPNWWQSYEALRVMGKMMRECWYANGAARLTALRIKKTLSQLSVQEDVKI
From the text: as §1

kinases (kinome) [8] = biological target: T8, kinases (kinome) (Homo sapiens, UniProt Q05397); settings: FAK (TK), IPI00413961
T8 construct: determined in kinobeads assays with mass spectrometry detection of kinases as described previously; endogenous in cells; host or cells: cell lysate
From the text: as §1

kinases (kinome) [9] = biological target: T9, kinases (kinome) (Homo sapiens, UniProt P42338); settings: PIK3Cb (Lipid Kinase), IPI00031388
T9 construct: determined in kinobeads assays with mass spectrometry detection of kinases as described previously; endogenous in cells; host or cells: cell lysate
From the text: as §1

kinases (kinome) [10] = biological target: T10, kinases (kinome) (Homo sapiens, UniProt Q9NSY1); settings: BIKE (Other), IPI00337426
T10 construct: determined in kinobeads assays with mass spectrometry detection of kinases as described previously; endogenous in cells; host or cells: cell lysate
From the text: as §1

kinases (kinome) [11] = biological target: T11, kinases (kinome) (Homo sapiens, UniProt Q99640); settings: MYT1 (Other), IPI00909627
T11 construct: determined in kinobeads assays with mass spectrometry detection of kinases as described previously; endogenous in cells; host or cells: cell lysate
T11 sequence (Q99640 1-499): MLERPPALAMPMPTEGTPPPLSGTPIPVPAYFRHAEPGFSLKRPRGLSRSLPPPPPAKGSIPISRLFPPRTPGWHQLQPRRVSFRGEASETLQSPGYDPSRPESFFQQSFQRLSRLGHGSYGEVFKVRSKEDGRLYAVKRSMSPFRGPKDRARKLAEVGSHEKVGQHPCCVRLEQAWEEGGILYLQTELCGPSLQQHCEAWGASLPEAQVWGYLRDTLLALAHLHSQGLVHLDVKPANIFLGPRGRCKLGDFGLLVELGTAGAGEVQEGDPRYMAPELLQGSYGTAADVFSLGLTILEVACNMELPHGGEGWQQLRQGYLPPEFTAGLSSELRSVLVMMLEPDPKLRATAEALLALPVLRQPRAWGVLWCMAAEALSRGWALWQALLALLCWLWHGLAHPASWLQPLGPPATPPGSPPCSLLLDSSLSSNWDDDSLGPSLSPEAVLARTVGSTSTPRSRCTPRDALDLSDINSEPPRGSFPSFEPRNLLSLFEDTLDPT
From the text: as §1

kinases (kinome) [12] = biological target: T12, kinases (kinome) (Homo sapiens, UniProt Q13705); settings: ACTR2B (TKL), IPI00437565
T12 construct: determined in kinobeads assays with mass spectrometry detection of kinases as described previously; endogenous in cells; host or cells: cell lysate
From the text: as §1

kinases (kinome) [13] = biological target: T13, kinases (kinome) (Homo sapiens, UniProt P19784); settings: CK2a2 (Other), IPI00020602
T13 construct: determined in kinobeads assays with mass spectrometry detection of kinases as described previously; endogenous in cells; host or cells: cell lysate
From the text: as §1

kinases (kinome) [14] = biological target: T14, kinases (kinome) (Homo sapiens, UniProt Q14164); settings: IKKe (Other), IPI00029045
T14 construct: determined in kinobeads assays with mass spectrometry detection of kinases as described previously; endogenous in cells; host or cells: cell lysate
T14 sequence (Q14164 1-716): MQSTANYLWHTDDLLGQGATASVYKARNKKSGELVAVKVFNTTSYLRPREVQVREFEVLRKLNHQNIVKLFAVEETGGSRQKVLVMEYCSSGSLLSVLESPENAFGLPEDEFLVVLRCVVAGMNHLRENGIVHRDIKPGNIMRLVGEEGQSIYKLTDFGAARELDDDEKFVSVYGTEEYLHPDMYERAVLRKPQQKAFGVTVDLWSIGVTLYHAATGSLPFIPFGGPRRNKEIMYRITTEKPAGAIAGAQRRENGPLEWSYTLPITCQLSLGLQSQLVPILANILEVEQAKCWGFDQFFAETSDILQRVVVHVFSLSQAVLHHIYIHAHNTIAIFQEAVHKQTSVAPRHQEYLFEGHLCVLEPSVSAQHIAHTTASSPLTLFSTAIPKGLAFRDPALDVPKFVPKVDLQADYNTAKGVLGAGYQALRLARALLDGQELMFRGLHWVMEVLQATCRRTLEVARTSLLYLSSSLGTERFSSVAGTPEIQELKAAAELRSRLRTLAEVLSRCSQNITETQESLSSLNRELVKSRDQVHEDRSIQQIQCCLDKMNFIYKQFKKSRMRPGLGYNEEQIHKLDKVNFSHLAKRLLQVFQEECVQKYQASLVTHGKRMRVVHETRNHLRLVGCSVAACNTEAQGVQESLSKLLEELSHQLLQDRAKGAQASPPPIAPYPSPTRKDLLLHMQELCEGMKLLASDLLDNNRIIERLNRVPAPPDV
From the text: as §1

kinases (kinome) [15] = biological target: T15, kinases (kinome) (Homo sapiens, UniProt Q9HCP0); settings: CK1g1 (CK1), IPI00791893
T15 construct: determined in kinobeads assays with mass spectrometry detection of kinases as described previously; endogenous in cells; host or cells: cell lysate
From the text: as §1

T10 sequence (Q9NSY1 whole entry): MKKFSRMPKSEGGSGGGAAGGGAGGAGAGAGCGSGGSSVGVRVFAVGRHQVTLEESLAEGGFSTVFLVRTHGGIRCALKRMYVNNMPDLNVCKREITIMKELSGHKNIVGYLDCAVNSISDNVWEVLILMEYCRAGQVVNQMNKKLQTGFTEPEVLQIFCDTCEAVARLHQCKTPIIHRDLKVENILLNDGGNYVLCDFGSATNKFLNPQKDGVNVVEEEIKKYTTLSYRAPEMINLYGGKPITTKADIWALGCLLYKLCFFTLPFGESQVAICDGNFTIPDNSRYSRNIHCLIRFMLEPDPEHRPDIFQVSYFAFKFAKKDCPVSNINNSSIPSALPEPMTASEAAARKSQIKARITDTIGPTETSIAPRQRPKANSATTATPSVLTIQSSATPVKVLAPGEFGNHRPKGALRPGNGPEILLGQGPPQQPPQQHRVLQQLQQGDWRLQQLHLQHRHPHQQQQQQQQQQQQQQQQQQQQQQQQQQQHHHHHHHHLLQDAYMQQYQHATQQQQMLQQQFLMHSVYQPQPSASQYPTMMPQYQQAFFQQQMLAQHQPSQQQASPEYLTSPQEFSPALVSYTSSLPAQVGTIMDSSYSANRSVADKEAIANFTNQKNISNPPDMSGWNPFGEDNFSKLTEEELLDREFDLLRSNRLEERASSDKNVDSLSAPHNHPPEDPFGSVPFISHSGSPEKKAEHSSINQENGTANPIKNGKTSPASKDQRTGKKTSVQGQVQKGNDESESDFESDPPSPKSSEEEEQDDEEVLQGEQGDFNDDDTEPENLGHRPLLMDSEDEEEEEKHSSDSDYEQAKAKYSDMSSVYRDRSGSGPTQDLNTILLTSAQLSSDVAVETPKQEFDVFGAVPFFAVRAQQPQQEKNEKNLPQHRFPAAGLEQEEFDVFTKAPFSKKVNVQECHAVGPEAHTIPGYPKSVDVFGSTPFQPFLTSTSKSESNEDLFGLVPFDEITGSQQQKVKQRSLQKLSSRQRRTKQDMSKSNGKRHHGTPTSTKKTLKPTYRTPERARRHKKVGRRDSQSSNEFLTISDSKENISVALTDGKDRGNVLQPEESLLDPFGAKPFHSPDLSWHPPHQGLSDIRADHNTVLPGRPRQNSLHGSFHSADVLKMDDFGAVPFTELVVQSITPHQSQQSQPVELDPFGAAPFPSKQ
T9 sequence (P42338 whole entry): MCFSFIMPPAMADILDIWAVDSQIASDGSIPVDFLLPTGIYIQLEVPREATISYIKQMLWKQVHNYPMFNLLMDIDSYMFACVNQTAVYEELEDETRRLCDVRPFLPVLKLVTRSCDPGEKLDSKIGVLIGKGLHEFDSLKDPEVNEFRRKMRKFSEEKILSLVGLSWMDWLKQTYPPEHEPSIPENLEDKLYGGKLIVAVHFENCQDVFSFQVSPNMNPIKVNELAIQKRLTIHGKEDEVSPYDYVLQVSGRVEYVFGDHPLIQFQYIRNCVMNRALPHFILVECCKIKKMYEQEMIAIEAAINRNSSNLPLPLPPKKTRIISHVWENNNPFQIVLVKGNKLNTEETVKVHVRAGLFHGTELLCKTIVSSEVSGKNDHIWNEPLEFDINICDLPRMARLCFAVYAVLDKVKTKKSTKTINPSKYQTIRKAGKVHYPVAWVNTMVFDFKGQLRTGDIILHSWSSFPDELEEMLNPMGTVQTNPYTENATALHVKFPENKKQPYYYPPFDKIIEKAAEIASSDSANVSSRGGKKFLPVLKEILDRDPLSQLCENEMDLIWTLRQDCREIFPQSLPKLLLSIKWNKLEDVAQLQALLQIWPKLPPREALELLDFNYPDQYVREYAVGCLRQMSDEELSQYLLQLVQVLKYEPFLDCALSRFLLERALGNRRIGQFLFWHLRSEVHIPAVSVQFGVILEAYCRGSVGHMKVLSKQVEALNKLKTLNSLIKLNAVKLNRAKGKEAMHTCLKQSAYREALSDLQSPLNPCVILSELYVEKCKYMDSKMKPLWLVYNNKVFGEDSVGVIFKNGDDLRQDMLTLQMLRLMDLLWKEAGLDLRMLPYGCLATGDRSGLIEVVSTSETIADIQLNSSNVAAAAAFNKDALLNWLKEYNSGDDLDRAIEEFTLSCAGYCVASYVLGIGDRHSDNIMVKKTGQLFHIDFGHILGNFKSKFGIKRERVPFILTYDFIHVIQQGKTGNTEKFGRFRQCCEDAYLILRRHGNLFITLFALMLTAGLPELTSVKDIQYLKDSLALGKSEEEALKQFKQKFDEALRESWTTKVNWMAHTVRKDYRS
T1 sequence (P05771 whole entry): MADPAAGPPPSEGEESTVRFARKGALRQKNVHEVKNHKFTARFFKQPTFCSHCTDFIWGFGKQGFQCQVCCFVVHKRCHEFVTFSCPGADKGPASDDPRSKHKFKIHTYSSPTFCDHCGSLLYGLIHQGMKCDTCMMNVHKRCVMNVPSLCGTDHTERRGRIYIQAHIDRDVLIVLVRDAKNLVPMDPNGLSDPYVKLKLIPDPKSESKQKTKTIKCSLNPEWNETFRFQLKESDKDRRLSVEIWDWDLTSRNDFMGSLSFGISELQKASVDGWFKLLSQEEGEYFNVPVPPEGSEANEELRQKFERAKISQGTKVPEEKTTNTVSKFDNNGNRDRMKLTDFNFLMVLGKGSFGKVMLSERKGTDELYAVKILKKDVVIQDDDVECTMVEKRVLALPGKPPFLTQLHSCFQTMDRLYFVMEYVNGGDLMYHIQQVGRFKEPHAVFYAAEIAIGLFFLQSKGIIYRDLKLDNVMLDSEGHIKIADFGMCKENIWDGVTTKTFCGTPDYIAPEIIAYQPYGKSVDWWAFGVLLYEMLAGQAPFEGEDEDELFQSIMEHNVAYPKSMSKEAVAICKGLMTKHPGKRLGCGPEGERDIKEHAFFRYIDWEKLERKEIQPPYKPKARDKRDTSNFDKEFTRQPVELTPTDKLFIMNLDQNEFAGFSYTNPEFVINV
T4 sequence (Q9UBF8 whole entry): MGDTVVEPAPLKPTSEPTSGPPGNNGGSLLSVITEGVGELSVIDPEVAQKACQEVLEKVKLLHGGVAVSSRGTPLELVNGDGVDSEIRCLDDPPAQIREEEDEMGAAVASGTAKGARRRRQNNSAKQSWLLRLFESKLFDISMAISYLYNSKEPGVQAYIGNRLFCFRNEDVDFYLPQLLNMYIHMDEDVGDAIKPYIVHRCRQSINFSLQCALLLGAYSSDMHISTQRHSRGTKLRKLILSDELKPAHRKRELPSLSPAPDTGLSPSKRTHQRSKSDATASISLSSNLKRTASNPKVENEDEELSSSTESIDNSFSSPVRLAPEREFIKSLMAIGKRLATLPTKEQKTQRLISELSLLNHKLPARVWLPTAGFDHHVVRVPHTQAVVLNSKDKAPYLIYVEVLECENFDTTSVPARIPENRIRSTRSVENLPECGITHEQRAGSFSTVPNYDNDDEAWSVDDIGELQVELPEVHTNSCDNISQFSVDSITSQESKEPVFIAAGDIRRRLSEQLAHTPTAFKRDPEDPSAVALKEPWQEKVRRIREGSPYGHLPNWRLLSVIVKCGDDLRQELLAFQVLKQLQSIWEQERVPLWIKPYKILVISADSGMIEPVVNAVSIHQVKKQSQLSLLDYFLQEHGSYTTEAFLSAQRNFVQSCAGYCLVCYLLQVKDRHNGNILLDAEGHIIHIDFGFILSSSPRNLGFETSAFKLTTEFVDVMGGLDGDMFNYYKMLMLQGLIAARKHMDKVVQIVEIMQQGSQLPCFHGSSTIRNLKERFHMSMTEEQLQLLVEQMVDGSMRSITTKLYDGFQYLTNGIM
T13 sequence (P19784 whole entry): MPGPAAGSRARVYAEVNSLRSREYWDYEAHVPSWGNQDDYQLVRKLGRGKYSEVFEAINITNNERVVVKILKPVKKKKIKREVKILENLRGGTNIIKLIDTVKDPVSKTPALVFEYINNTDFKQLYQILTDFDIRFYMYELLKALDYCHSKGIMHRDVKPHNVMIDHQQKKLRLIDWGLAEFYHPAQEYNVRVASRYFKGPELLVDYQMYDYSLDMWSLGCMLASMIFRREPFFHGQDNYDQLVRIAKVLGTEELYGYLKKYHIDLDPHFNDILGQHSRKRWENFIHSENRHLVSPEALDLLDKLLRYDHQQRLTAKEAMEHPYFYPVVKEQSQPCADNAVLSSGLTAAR
T12 sequence (Q13705 19-512): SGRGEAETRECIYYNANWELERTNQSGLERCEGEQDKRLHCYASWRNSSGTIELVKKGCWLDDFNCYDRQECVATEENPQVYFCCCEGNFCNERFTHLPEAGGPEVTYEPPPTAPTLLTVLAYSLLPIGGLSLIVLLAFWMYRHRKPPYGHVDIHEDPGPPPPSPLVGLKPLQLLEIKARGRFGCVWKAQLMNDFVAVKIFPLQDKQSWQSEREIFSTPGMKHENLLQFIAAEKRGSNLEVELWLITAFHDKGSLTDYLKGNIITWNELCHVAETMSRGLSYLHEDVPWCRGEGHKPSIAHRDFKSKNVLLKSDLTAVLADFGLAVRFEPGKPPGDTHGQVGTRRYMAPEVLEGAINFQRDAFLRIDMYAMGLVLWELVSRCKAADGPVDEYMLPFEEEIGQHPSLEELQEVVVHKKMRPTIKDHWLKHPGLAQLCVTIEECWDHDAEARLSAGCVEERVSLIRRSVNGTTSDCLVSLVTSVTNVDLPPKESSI
T5 sequence (Q8NI60 163-647): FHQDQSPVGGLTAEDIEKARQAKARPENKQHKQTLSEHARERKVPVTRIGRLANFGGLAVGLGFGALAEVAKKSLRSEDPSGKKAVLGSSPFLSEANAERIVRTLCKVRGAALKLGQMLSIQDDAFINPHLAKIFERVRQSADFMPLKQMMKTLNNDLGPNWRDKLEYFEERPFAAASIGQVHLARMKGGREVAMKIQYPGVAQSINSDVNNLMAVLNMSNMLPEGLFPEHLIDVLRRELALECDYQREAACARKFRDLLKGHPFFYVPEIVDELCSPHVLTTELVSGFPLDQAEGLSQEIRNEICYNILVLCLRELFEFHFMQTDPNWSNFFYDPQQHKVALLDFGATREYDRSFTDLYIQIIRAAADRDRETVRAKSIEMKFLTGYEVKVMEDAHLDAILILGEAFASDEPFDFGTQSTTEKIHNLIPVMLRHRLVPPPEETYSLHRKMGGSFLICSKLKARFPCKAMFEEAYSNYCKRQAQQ

SMILES | pIC50 (kinases (kinome) [1]) | pIC50 (kinases (kinome) [2]) | pIC50 (kinases (kinome) [3]) | pIC50 (kinases (kinome) [4]) | pIC50 (kinases (kinome) [5]) | pIC50 (kinases (kinome) [6]) | pIC50 (kinases (kinome) [7]) | pIC50 (kinases (kinome) [8]) | pIC50 (kinases (kinome) [9]) | pIC50 (kinases (kinome) [10]) | pIC50 (kinases (kinome) [11]) | pIC50 (kinases (kinome) [12]) | pIC50 (kinases (kinome) [13]) | pIC50 (kinases (kinome) [14]) | pIC50 (kinases (kinome) [15])
C[C@H]1COCCN1c1nc(-c2ccc(NC(=O)N[C@H]3CCC[C@@H]3O)cc2)cc(-c2cc(F)ccc2S(C)(=O)=O)n1 [Example 76, 1-(4-(6-(5-fluoro-2-(methylsulfonyl)phenyl)-2-((S)-3-methylmorpholino)pyrimidin-4-yl)phenyl)-3-((1S,2S)-2-hydroxycyclopentyl)urea] | < 5.00 | < 5.00 | < 5.00 | < 5.00 | < 5.00 | < 5.00 | < 5.00 | < 5.00 | < 5.00 | < 5.00 | < 5.00 | < 5.00 | < 5.00 | < 5.00 | < 5.00
C[C@H]1COCCN1c1cc(-c2ccccn2)nc(-c2ccc(NC(=O)NCCO)cc2)n1 [Example 43, (S)-1-(2-hydroxyethyl)-3-(4-(4-(3-methylmorpholino)-6-(pyridin-2-yl)pyrimidin-2-yl)phenyl)urea] | < 5.00 | < 5.00 | < 5.00 | < 5.00 | < 5.00 | < 5.00 |  | < 5.00 | < 5.00 | < 5.00 | < 5.00 | < 5.00 | < 5.00 | < 5.00 | < 5.00
C[C@H]1COCCN1c1cc(-c2ccccc2S(C)(=O)=O)nc(-c2ccc(NC(=O)NC3CC3)cc2)n1 [Example 6, (S)-1-cyclopropyl-3-(4-(4-(3-methylmorpholino)-6-(2-(methylsulfonyl)phenyl)pyrimidin-2-yl)phenyl)urea] | < 5.00 | < 5.00 | < 5.00 | < 5.00 | < 5.00 | < 5.00 | < 5.00 | < 5.00 | < 5.00 | < 5.00 | < 5.00 | < 5.00 | < 5.00 | < 5.00 | < 5.00
CCNC(=O)Nc1ccc(-c2cc(-c3ccccc3C#N)nc(N3CCOC[C@@H]3C)n2)cc1 [Example 8, (S)-1-(4-(6-(2-cyanophenyl)-2-(3-methylmorpholino)pyrimidin-4-yl)phenyl)-3-ethylurea] | < 5.00 | < 5.00 | < 5.00 | < 5.00 | < 5.00 | < 5.00 | < 5.00 | < 5.00 | < 5.00 | < 5.00 | < 5.00 | < 5.00 | < 5.00 | < 5.00 | < 5.00

The remaining lines, values ahead:

pIC50 (kinases (kinome) [1]) | pIC50 (kinases (kinome) [2]) | pIC50 (kinases (kinome) [3]) | pIC50 (kinases (kinome) [4]) | pIC50 (kinases (kinome) [5]) | pIC50 (kinases (kinome) [6]) | pIC50 (kinases (kinome) [7]) | pIC50 (kinases (kinome) [8]) | pIC50 (kinases (kinome) [9]) | pIC50 (kinases (kinome) [10]) | pIC50 (kinases (kinome) [11]) | pIC50 (kinases (kinome) [12]) | pIC50 (kinases (kinome) [13]) | pIC50 (kinases (kinome) [14]) | pIC50 (kinases (kinome) [15]) | SMILES
< 5.00 | < 5.00 | < 5.00 | < 5.00 | < 5.00 | < 5.00 | < 5.00 | < 5.00 | < 5.00 | < 5.00 | < 5.00 | < 5.00 | < 5.00 | < 5.00 | < 5.00 | C[C@H]1COCCN1c1nc(-c2ccc(NC(=O)NC3CC3)cc2)cc(-c2cccnc2S(C)(=O)=O)n1 [Example 46, (S)-1-cyclopropyl-3-(4-(2-(3-methylmorpholino)-6-(2-(methylsulfonyl)pyridin-3-yl)pyrimidin-4-yl)phenyl)urea]
< 5.00 | < 5.00 | < 5.00 | < 5.00 | < 5.00 | < 5.00 | < 5.00 | < 5.00 | < 5.00 | < 5.00 | < 5.00 | < 5.00 | < 5.00 | < 5.00 | < 5.00 | C[C@H]1COCCN1c1nc(-c2ccc(NC(=O)NC3CC3)cc2)cc(-c2ccccc2S(C)(=O)=O)n1 [Example 4, (S)-1-cyclopropyl-3-(4-(2-(3-methylmorpholino)-6-(2-(methylsulfonyl)phenyl)pyrimidin-4-yl)phenyl)urea]
< 5.00 | < 5.00 | < 5.00 | < 5.00 | < 5.00 | < 5.00 | < 5.00 | < 5.00 | < 5.00 | < 5.00 | < 5.00 | < 5.00 | < 5.00 | < 5.00 | < 5.00 | C[C@H]1COCCN1c1nc(-c2ccc(NC(=O)NC3CC3)cc2)cc(-c2cc(F)ccc2S(C)(=O)=O)n1 [Example 40, (S)-1-cyclopropyl-3-(4-(6-(5-fluoro-2-(methylsulfonyl)phenyl)-2-(3-methylmorpholino)pyrimidin-4-yl)phenyl)urea]

Source: patent US9249129B2, “Morpholino substituted urea derivatives as mTOR inhibitors” (CELLZOME LIMITED, priority 2010, dated 2016)
